Read-outs that look alike come from different tables or passages of the source.
Experiments:
[1] = test system: SMN FL and SMN Δ7 in spinal muscular atrophy (SMA) patient fibroblasts (GM03813, Coriell); assay: Quantitative splicing assay (SMN), qPCR; format: cell-based, human; details: Homo sapiens, Fibroblast, 24 h, read-out: SMN2 Splicing FL EC50
Experimental: Spinal muscular atrophy (SMA) patient fibroblasts (GM03813, Coriell) are plated in 96-well plates at 50,000 cells/well. […] Treated cells are lysed and cDNA synthesized using the Fast Advanced Cells-to-Ct kit (Thermofisher A35378) according to the manufacturer's instructions. 2 μL of each cDNA are used in qPCR reactions. […] Reactions are run in a Quant Studio 6 qPCR instrument with default settings.

[2] = Quantitative splicing assay (HTT), qPCR; format: cell-based, human; details: Homo sapiens, GM04724, 24 h, GM04724 lymphoblasts, read-out: HTT Splicing: E49-50 EC50
In short: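 Patient lymphoblasts (50,000 cells/well) dosed immediately after plating for 24 h at 2.5 uM to 0.15 nM in 0.1% DMSO. Lysed, cDNA made directly from cells, and inclusion of the intron 49 cryptic exon quantified by TaqMan qPCR.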

[3] = test system: mHTT protein in GM04724 (CAG 70/20) Huntington's disease patient lymphoblast cells; assay: mHTT protein assay, 2B7-MW1 assay via Mesoscale Discovery (MSD); format: cell-based, human
In short: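 Patient lymphoblasts treated 48 h with compound from 10 μM to 0.6 nM. mHTT quantified by MSD 2B7-MW1 immunoassay, whose signal depends on polyQ expansion and HTT size. Viability measured on a replicate plate by CellTiter Glo.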

MDR1 = assay: Blood-brain-barrier (BBB) penetration potential via MDCK-MDR1 permeability assay; details: dog, MDCK-MDR1, pH 7.4, MDCK-MDR1: Efflux
[4] = test system: MDR1-MDCK cell monolayers; assay: as above
MDR1 (P-gp) = assay: as above; details: dog; for Papp A→B at 120 min, 5 μM: MDCK-MDR1, pH 7.4, MDCK-MDR1: Papp A-B; for Papp B→A at 120 min, 5 μM: MDCK-MDR1, pH 7.4, MDCK-MDR1: Papp B-A
[5] = test system: SMN protein in spinal muscular atrophy (SMA) patient fibroblasts (GM03813, Coriell); assay: SMN protein assay, Mesoscale Discovery (MSD); format: cell-based, human; details: read-out: SMN2 protein EC50
In short: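 SMA patient fibroblasts (GM03813) seeded at 7000 cells/well and exposed to compound at 2.5 μM to 0.6 nM for 48 hours. Lysates assayed for SMN by MSD immunoassay, with absolute SMN amount calculated from a per-plate SMN standard curve (1 μg/ml to 19.5 pg/ml).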

[6] = SMA patient fibroblasts GM03813, 24 h, qPCR
[7] = GM04724 Huntington's disease patient lymphoblasts
[8] = SMA patient fibroblasts GM03813, 48 hours, MSD

Row | Compound | EC50 [1, 6] | EC50 ([2]; qPCR) | EC50 [3, 7] | efflux ratio at 120 min, 5 μM (MDR1; efflux ratio) | MDCK-MDR1: % Recov A-B ([4]; A-B direction) | MDCK-MDR1: % Recov B-A ([4]; B-A direction) | Papp A→B at 120 min, 5 μM (MDR1 (P-gp); A-B direction) | Papp B→A at 120 min, 5 μM (MDR1 (P-gp); B-A direction) | EC50 [5, 8] | EC50 ([1]; SMA patient fibroblasts (GM03813)) | EC50 [2] | EC50 ([3]; GM04724 (CAG 70/20) Huntington's disease patient lymphoblasts) | efflux ratio at 120 min, 5 μM (MDR1) | MDCK-MDR1: % Recov A-B ([4]; A-B) | MDCK-MDR1: % Recov B-A ([4]; B-A) | Papp A→B at 120 min, 5 μM (MDR1 (P-gp); A-B) | Papp B→A at 120 min, 5 μM (MDR1 (P-gp); B-A) | EC50 ([5]; SMA patient fibroblasts (GM03813), 48 hours)
1 | CN(c1ccc(-c2ccc(-c3nnco3)cc2O)nn1)[C@H]1C[C@@H]2CC[C@@H](N2)[C@H]1F [Compound 44B, 2-(6-(((1R,2R,3S,5S)-2-fluoro-8-azabicyclo[3.2.1]octan-3-yl)(methyl)amino)pyridazin-3-yl)-5-(1,3,4-oxadiazol-2-yl)phenol] | 0.01 to 15 nM | 0.01 to 15 nM | 0.01 to 15 nM | 7 | 91% | 92% | 8.2 ×10⁻⁶ cm/s | 54.7 ×10⁻⁶ cm/s | 16 to 50 nM |  |  |  |  |  |  |  |  | 
2 | CN(c1ccc(-c2ccc(-n3ccnn3)cc2O)nn1)[C@H]1C[C@@H]2CCC[C@@H](N2)[C@H]1F [Compound 62B, 2-(6-(((1R,2R,3S,5S)-2-fluoro-9-azabicyclo[3.3.1]nonan-3-yl)(methyl)amino)pyridazin-3-yl)-5-(1H-1,2,3-triazol-1-yl)phenol] | 0.01 to 15 nM | 0.01 to 15 nM | 0.01 to 15 nM | 19 | 82% | 80% | 3.18 ×10⁻⁶ cm/s | 59.8 ×10⁻⁶ cm/s | 0.01 to 15 nM |  |  |  |  |  |  |  |  | 
3 | CN(c1ccc(-c2ccc(-c3cnn(C)c3)cc2O)nn1)[C@@H]1C[C@H]2CCC[C@H](N2)[C@H]1F [Compound 14A, 2-(6-(((1S,2R,3R,5R)-2-fluoro-9-azabicyclo[3.3.1]nonan-3-yl)(methyl)amino)pyridazin-3-yl)-5-(1-methyl-1H-pyrazol-4-yl)phenol] | 51 to 100 nM | 16 to 50 nM | 16 to 50 nM | 14 | 59% | 83% | 3 ×10⁻⁶ cm/s | 42.4 ×10⁻⁶ cm/s | 0.01 to 15 nM |  |  |  |  |  |  |  |  | 
4 | CN(c1ccc(-c2ccc(-c3cnn(C)c3)cc2O)nn1)[C@H]1C[C@@H]2CCC[C@@H](N2)[C@@H]1F [Compound 14B, 2-(6-(((1R,2S,3S,5S)-2-fluoro-9-azabicyclo[3.3.1]nonan-3-yl)(methyl)amino)pyridazin-3-yl)-5-(1-methyl-1H-pyrazol-4-yl)phenol] | 51 to 100 nM | 0.01 to 15 nM | 0.01 to 15 nM | 11 | 54% | 91% | 2.95 ×10⁻⁶ cm/s | 32.1 ×10⁻⁶ cm/s | 0.01 to 15 nM |  |  |  |  |  |  |  |  | 
5 | CN(c1ccc(-c2cc3ncccc3cc2O)nn1)[C@@H]1C[C@H]2CCC[C@H](N2)[C@@H]1F [Compound 78A, 7-(6-(((1S,2S,3R,5R)-2-fluoro-9-azabicyclo[3.3.1]nonan-3-yl)(methyl)amino)pyridazin-3-yl)quinolin-6-ol] | 51 to 100 nM | 16 to 50 nM | 16 to 50 nM | 23 | 74% | 89% | 2.19 ×10⁻⁶ cm/s | 50.5 ×10⁻⁶ cm/s | 16 to 50 nM |  |  |  |  |  |  |  |  | 
6 | CN(c1ccc(-c2cc3oc(C(=O)N4CCC4)cc3cc2O)nn1)[C@H]1C[C@@H]2CC[C@@H](N2)[C@H]1F [Compound 112B, azetidin-1-yl(6-(6-(((1R,2R,3S,5S)-2-fluoro-8-azabicyclo[3.2.1]octan-3-yl)(methyl)amino)pyridazin-3-yl)-5-hydroxybenzofuran-2-yl)methanone] |  |  |  |  |  |  |  |  |  | 0.01 to 15 nM | 16 to 50 nM | 0.01 to 15 nM | 95 | 98% | 81% | 0.5 ×10⁻⁶ cm/s | 47.3 ×10⁻⁶ cm/s | 0.01 to 15 nM
